Columns and labels:
Format in all cases: cell-based
[1] = test system: A673 cells; test: CellTiter-Glow cell viability, Ewings sarcoma A673; details: Homo sapiens, 72 h, read-out: % Inh @2 μM A673
Experimental: (§1) Antitumor activity of the compounds and cisplatin as a positive control was assessed by using CellTiter-Glow® Luminescent Cell Viability assay (Promega #G7572) according to the manufacturer's instructions. The compounds were tested at 2 concentrations, 2 and 20 μM, in triplicate well conditions.
(§2) Tumor cells were grown at 37° C. in a humidified atmosphere with 5% CO2 in RPMI 1640 or DMEM medium, supplemented with 10% (v/v) fetal calf serum and 50 μg/ml gentamicin for up to 20 passages, and were passaged once or twice weekly. Cells were harvested using TrypLE or PBS buffer containing 1 mM EDTA, and the percentage of viable cells is determined using a cell counter.
(§3) Cells were harvested from exponential phase cultures, counted and plated in 96 well flat-bottom microtiter plates at a cell density depending on the cell line's growth rate (4,000-20,000 cells/well depending on the cell line's growth rate, up to 60,000 for hematological cancer cell lines) in RPMI 1640 or DMEM medium supplemented with 10% (v/v) fetal calf serum and 50 μg/ml gentamicin (140 μl/well). Cultures were incubated at 37° C. and 5% CO2 in a humidified atmosphere. After 24 h, 10 μl of test compounds or control medium are added and left on the cells for another 72 h.
(§4) Compounds were serially diluted in DMSO, transferred in cell culture medium, and added to the assay plates. The DMSO concentration was kept constant at <0.2% v/v across the assay plate. Viability of cells was quantified by CellTiter-Glow® Luminescent Cell Viability assay (Promega). Luminescence was measured with the microplate luminometer (EnVision Multi Label Reader).

[2] = test system: SH-SY-5Y cells; test: CellTiter-Glow cell viability, brain carcinoma SH-SY-5Y; details: Homo sapiens, SH-SY5Y, 72 h, read-out: % Inh @2 μM SH-SY-5Y
Experimental: as §1, §2
as §3, with “Cultures were incubated at 37° C. and 5% CO2 in a humidified atmosphere. After 24 h, 10 μl of test compounds or control medium are added and left on the cells for another 72 h.” left out
(§5) Compounds were serially diluted in DMSO, transferred in cell culture medium, and added to the assay plates. […] Viability of cells was quantified by CellTiter-Glow® Luminescent Cell Viability assay (Promega). Luminescence was measured with the microplate luminometer (EnVision Multi Label Reader).

[3] = test system: U937 cell line; test: CellTiter-Glow cell viability, leukemia U937; details: Homo sapiens, U-937, 72 h, read-out: growth inhibition of U937 cell line
Experimental: as §1, §2
as §3, with “Cultures were incubated at 37° C. and 5% CO2 in a humidified atmosphere. After 24 h, 10 μl of test compounds or control medium are added and left on the cells for another 72 h.” left out
as §5

[4] = test system: NAWALMA cells; test: CellTiter-Glow cell viability, lymphoma NAWALMA; details: 72 h, read-out: % Inh @2 μM NAWALMA
Experimental: as §1, §2, §3, §4

[5] = test system: Daudi cells; test: CellTiter-Glow cell viability, lymphoma Daudi; details: Homo sapiens, 72 h, read-out: % Inh @2 μM Daudi
Experimental: as §1, §2, §3, §4

[6] = test system: SK-Mel-5 cell line; test: CellTiter-Glow cell viability, melanoma SK-Mel-5; details: for inhibition at 2 µM: Homo sapiens, SK-MEL-5, 72 h, read-out: % Inh @2 μM SK-Mel-5
Experimental: as §1, §2, §3, §4

[7] = test system: SK-N-SH cells; test: CellTiter-Glow cell viability, brain carcinoma SK-N-SH; details: Homo sapiens, 72 h, read-out: % Inh @2 μM SK-N-SH
Experimental: as §1, §2, §3, §4

[8] = test system: NCI-H292 cells; test: CellTiter-Glow cell viability, lung carcinoma NCI-H292; details: Homo sapiens, 72 h, read-out: % Inh @2 μM NCI-H292
Experimental: as §1, §2, §3, §4

[9] = test system: A2058 cells; test: CellTiter-Glow cell viability, melanoma A2058; details: for inhibition at 2 µM: Homo sapiens, A2058, 72 h, read-out: % Inh @2 μM A2058
Experimental: as §1, §2, §3, §4

[10] = test system: A375 cells; test: CellTiter-Glow cell viability, melanoma A375; details: for inhibition at 2 µM: Homo sapiens, A-375, 72 h, read-out: % Inh @2 μM A375
Experimental: as §1, §2, §3, §4

[11] = test system: H118MG cells; test: CellTiter-Glow cell viability, brain carcinoma cells H118MG; details: 72 h, read-out: growth inhibition of brain carcinoma cells H118MG
Experimental: as §1, §2
as §3, with “Cultures were incubated at 37° C. and 5% CO2 in a humidified atmosphere. After 24 h, 10 μl of test compounds or control medium are added and left on the cells for another 72 h.” left out
as §5

[12] = test system: HCT116 cells; test: CellTiter-Glow cell viability, colon carcinoma HCT116; details: Homo sapiens, HCT-116, 72 h, read-out: % Inh @2 μM HCT116
Experimental: as §1, §2
as §3, with “Cultures were incubated at 37° C. and 5% CO2 in a humidified atmosphere. After 24 h, 10 μl of test compounds or control medium are added and left on the cells for another 72 h.” left out
as §5

[13] = test system: K562 cells; test: CellTiter-Glow cell viability, leukemia K562; details: Homo sapiens, 72 h, read-out: % Inh @2 μM K562
Experimental: as §1, §2
as §3, with “Cultures were incubated at 37° C. and 5% CO2 in a humidified atmosphere. After 24 h, 10 μl of test compounds or control medium are added and left on the cells for another 72 h.” left out
as §5

[14] = test system: DMS114 cells; test: CellTiter-Glow cell viability, lung carcinoma DMS114; details: Homo sapiens, DMS-114, 72 h, read-out: growth inhibition of lung carcinoma cells DMS114
Experimental: as §1, §2
as §3, with “Cultures were incubated at 37° C. and 5% CO2 in a humidified atmosphere. After 24 h, 10 μl of test compounds or control medium are added and left on the cells for another 72 h.” left out
as §5

[15] = test system: MeWo cell line; test: CellTiter-Glow cell viability, melanoma MeWo; details: Homo sapiens, 72 h, read-out: growth inhibition of MeWo cell line
Experimental: as §1, §2
as §3, with “Cultures were incubated at 37° C. and 5% CO2 in a humidified atmosphere. After 24 h, 10 μl of test compounds or control medium are added and left on the cells for another 72 h.” left out
as §5

SMILES | inhibition at 2 µM [1] | inhibition at 2 µM [4] | inhibition at 2 µM [5] | inhibition at 2 µM [6] | inhibition at 2 µM [7] | inhibition at 2 µM [8] | inhibition at 2 µM [9] | inhibition at 2 µM [10] | other results
COc1c(O)ccc2c(=O)c(O)c(-c3ccc(N(C)CCCCNCCCNCCCCN)cc3)oc12 [SND445] | 61.8% |  |  |  |  |  |  |  | 
COc1c(O)ccc2c(=O)c(O)c(-c3ccc(N(C)CCCCNCCCN)cc3)oc12 [SND446] |  | 75.5% | 82% | 56.5% |  |  |  |  | inhibition at 2 µM [2]: 55.8%; inhibition at 2 µM [3]: 58%
COc1c(O)ccc2c(=O)c(O)c(-c3ccc(N(C)CCCCN(C)CCN4CCN(Cc5ccccc5)CC4)cc3)oc12 [SND438] | 55.6% | 65.3% | 50% | 61.1% | 53.5% | 51.9% | 72.1% | 55.5% | % Inh @2 μM SK-Mel-5 ([6]; 72 h): 50.7%; % Inh @2 μM A2058 ([9]; 72 h): 78.2%; % Inh @2 μM A375 ([10]; 72 h): 60.8%
COc1c(-c2ccc(N(C)CCCCN(C)CCCN3CCCCC3)cc2)oc2c(OC)c(O)ccc2c1=O [SND459] | 63.5% |  |  |  |  |  |  |  | 
COc1c(O)ccc2c(=O)c(O)c(-c3ccc(N(C)CCCCN(C)CCC4CCN(Cc5ccccc5)CC4)cc3)oc12 [SND437] | 99.6% | 80.8% | 59.4% | 99.7% | 96.4% | 71.6% | 97.3% | 69.5% | inhibition at 2 µM [11]: 97.6%; inhibition at 2 µM [12]: 83.7%; inhibition at 2 µM [13]: 65.3%; inhibition at 2 µM [14]: 98%; inhibition at 2 µM [15]: 93.2%
COc1c(O)ccc2c(=O)c(O)c(-c3ccc(N(C)CCCCN(C)CCCN4CCCCC4)cc3)oc12 [SND439] | 80.8% | 73.4% | 57.4% |  | 57.5% | 62.6% |  |  | 

— patent US20240051930A1, “HETEROAROMATIC SPERMIDINE ANALOGUES AND THEIR ANTICANCER ACTIVITY” (FLORATEK PHARMA S.A., priority 2021, published 2024)
